Source: patent US20220402862A1 (Intellia Therapeutics, Inc., priority 2019, published 2022)
Values joined by “and” are separate entries in the source; they are usually repeats but may differ in a detail not shown here. Equal entries are not always repeated.

How the values were obtained:
[1] = pKa measurement of unformulated amine lipid (fluorescence, method of Jayaraman et al.); type: physicochemical; details: 100 μM in 0.1 M phosphate buffer, pH 2.0-12.0
Method: The pKa of each amine lipid was determined according to the method in Jayaraman, et al. (Angewandte Chemie, 2012) with the following adaptations. […] Lipid was diluted to 100 μM in 0.1 M phosphate buffer (Boston Bioproducts) where the pH ranged from 2.0-12.0. Fluorescence intensity was measured using excitation and emission wavelengths of 321 nm and 448 nm.

[2] = RNA encapsulation efficiency of LNPs (Ribogreen fluorescence assay); type: physicochemical; details: for % E (encapsulation efficiency): LNP with G534 sgRNA and Cas9 mRNA, sg:mRNA 1:2, experiment 109; for % E / Encapsulation (%): LNP
Outline: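 LNPs were diluted in 1× TE with 0.2% Triton X-100 (total RNA) or without it (free RNA), stained with RiboGreen for ~10 min at room temperature in the dark, and read at Ex 488/Em 525 nm against standard curves of the starting RNA. Encapsulation efficiency = (Total − Free)/Total.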

[3] = Dynamic light scattering of LNPs: Z-average diameter, number average diameter, PDI; type: physicochemical
Outline: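 LNP samples were diluted in PBS and measured by DLS to give intensity-based Z-average diameter, number average diameter and polydispersity index. PDI describes size spread around the mean, with zero meaning a uniform population.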

Transthyretin (TTR) = test: Serum TTR ELISA in mice after LNP dosing; type: in vivo, CD-1 female mice
Outline: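 Female CD-1 mice, 6–10 weeks, given LNPs by tail-vein injection (~10 mL/kg), 0.1 mg/kg unless noted; serum taken at day 6 or 7 by cardiac puncture. Total mouse TTR by ELISA on sera diluted 10,000-fold (0.1 mg/kg) or 10,000- and 2,500-fold (0.3 mg/kg).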

[4] = sg:mRNA 1:1, N/P 6.0, 50/9/38/3, Table 4, Experiments 101-104
[5] = sg:mRNA 1:1, N/P about 6, amine lipid/DSPC/cholesterol/PEG-2k-DMG 50/9/38/3, Table 2, Experiments 2-20
[6] = sg:mRNA 1:2, N/P 6.0, 50/9/38/3, Table 4, Experiment 105
[7] = sg:mRNA 1:2, N/P about 6, 50/9/38/3, G650 sgRNA, Table 8, Experiment 108
[8] = LNP with G534 sgRNA and Cas9 mRNA, sg:mRNA 1:2, experiment 109
[9] = LNP, sg:mRNA 1:1, N/P 6.0, 50/9/38/3, Table 4, Experiments 101-104
[10] = LNP, sg:mRNA 1:1.3, N/P about 6, 50/9/38/3, Table 2, Experiment 1
[11] = LNP, sg:mRNA 1:2, N/P 6.0, 50/9/38/3, Table 4, Experiment 105
[12] = LNP, sg:mRNA 1:2, N/P about 6, 50/9/38/3, G650, Table 8, Experiment 108
[13] = LNP, sg:mRNA 1:2, N/P about 6, 50/9/38/3, Table 6, Experiments 106-107
[14] = mouse, LNP i.v. 0.03 mg/kg, guide G502, Experiment 105
[15] = mouse, LNP i.v. 0.03 mg/kg, guide G502, Experiment 105, relative to TSS control
[16] = mouse, LNP i.v. 0.1 mg/kg, guide G502, Experiment 105
[17] = mouse, LNP i.v. 0.1 mg/kg, guide G502, Experiment 105, relative to TSS control
[18] = LNP, sg:mRNA 1:1, N/P about 6, 50/9/38/3, Table 2, Experiments 2-20
[19] = mouse serum TTR relative to TSS control, guide G282 experiments
[20] = mouse serum, guide G282 experiments, ELISA
[21] = mouse, LNP i.v. 0.1 mg/kg, guide G282, Experiments 101-103
[22] = mouse, LNP i.v. 0.1 mg/kg, guide G282, Experiments 101-103, relative to TSS control
[23] = mouse, LNP i.v. 0.3 mg/kg, guide G282, Experiments 101-103
[24] = mouse, LNP i.v. 0.3 mg/kg, guide G282, Experiments 101-103, relative to TSS control

Row | SMILES | pKa [1] | % E (encapsulation efficiency) [2] | % E [2, 4] | Encapsulation (%) [2, 5] | % E [2, 6] | Number mean (nm) [3, 8] | PDI [3, 8] | Z-avg (nm) [3, 8] | Number mean (nm) [3, 9] | Z-avg (nm) [3, 9] | Number mean (nm) [3, 11] | PDI [3, 11] | Z-avg (nm) [3, 11] | Serum TTR (Transthyretin (TTR); [14]) | Serum TTR % TSS (Transthyretin (TTR); [15]) | Serum TTR (Transthyretin (TTR); [16]) | Number mean (nm) [3, 18] | Z-avg (nm) [3, 18] | Serum TTR % TSS (Transthyretin (TTR); [19]) | Serum TTR (Transthyretin (TTR); [20]) | further results
1 | CCCCC/C=C\C/C=C\CCCCCCCC(=O)OCC(COC(=O)CCC(OCCCCCCCC)OCCCCCCCC)COC(=O)OCCCN(CC)CC (stereo not shown) [Compound 1, 3-((4,4-bis(octyloxy)butanoyl)oxy)-2-((((3-(diethylamino)propoxy)carbonyl)oxy)methyl)propyl (9Z,12Z)-octadeca-9,12-dienoate, reference compound] | 6.4 | 98% | 98% and 99% and 97% | 96% and 99% and 98% and 97% | 99% | 73 nm | 0.01 | 88 nm | 69.51 nm and 62.86 nm and 64.97 nm and 63.19 nm | 84.93 nm and 79.83 nm and 82.71 nm and 79.18 nm | 73.15 nm | 0.033 | 88.60 nm | 931 µg/mL | 85% | 294 µg/mL | – | – | – | – | Encapsulation (%) ([2]; sg:mRNA 1:1.3, N/P about 6, amine lipid/DSPC/cholesterol/PEG-2k-DMG 50/9/38/3, Table 2, Experiment 1): 97%; % E [2, 7]: 98%; % E ([2]; sg:mRNA 1:2, N/P about 6, 50/9/38/3, TTR sgRNA (SEQ ID NO: 4), Table 6, Experiments 106-107): 99%; Number mean (nm) [3, 10]: 63.16 nm; PDI [3, 10]: 0.022; Z-avg (nm) [3, 10]: 77.85 nm; Number mean (nm) [3, 12]: 70 nm; PDI [3, 12]: 0.03; Z-avg (nm) [3, 12]: 86 nm; Number mean (nm) [3, 13]: 76 nm and 71 nm; Z-avg (nm) [3, 13]: 91 nm and 88 nm; Serum TTR % TSS (Transthyretin (TTR); mouse serum TTR relative to TSS control, guide G502, i.v. 0.1 mg/kg, 0.1 mg/kg): 53.7% and 37.8%; Serum TTR (Transthyretin (TTR); mouse serum, guide G502, i.v. 0.1 mg/kg, 0.1 mg/kg): 593.76 µg/mL and 442 µg/mL; Serum TTR % TSS (Transthyretin (TTR); mouse, LNP i.v. 0.1 mg/kg, guide G282, Experiments 101-103, relative to TSS control, 0.1 mg/kg): 79% and 54% and 76%; Serum TTR % TSS (Transthyretin (TTR); [17]): 27%; Serum TTR % TSS (Transthyretin (TTR); mouse, LNP i.v. 0.3 mg/kg, guide G282, Experiments 101-103, relative to TSS control, 0.3 mg/kg): 20% and 13%
2 | CCCCC/C=C\C/C=C\CCCCCCCC(=O)OCC(COC(=O)CCC(OCCCCCCCC)OCCCCCCCC)COC(=O)NCC1CCCN1CC (stereo not shown) [Compound 40, 3-((4,4-bis(octyloxy)butanoyl)oxy)-2-(((((1-ethylpyrrolidin-2-yl)methyl)carbamoyl)oxy)methyl)propyl (9Z,12Z)-octadeca-9,12-dienoate] | 7.33 | – | 95% | 98% | – | – | – | – | 66.92 nm | 83.69 nm | – | – | – | – | – | – | 56.73 nm | 74.12 nm | 44% | 393 µg/mL | PDI [3, 9]: 0.014; PDI [3, 18]: 0.056; Serum TTR (Transthyretin (TTR); [21]): 443 µg/mL; Serum TTR % TSS (Transthyretin (TTR); [22]): 48%; Serum TTR (Transthyretin (TTR); [23]): 80 µg/mL; Serum TTR % TSS (Transthyretin (TTR); [24]): 9%
3 | CCCCC/C=C\C/C=C\CCCCCCCC(=O)OCC(COC(=O)CCC(OCCCCCCCC)OCCCCCCCC)COC(=O)OCC1CCCN(C)C1 (stereo not shown) [Compound 53, 3-((4,4-bis(octyloxy)butanoyl)oxy)-2-(((((1-methylpiperidin-3-yl)methoxy)carbonyl)oxy)methyl)propyl (9Z,12Z)-octadeca-9,12-dienoate] | 6.85 | – | 99% | 99% | – | – | – | – | 56.05 nm | 70.47 nm | – | – | – | – | – | – | 60.35 nm | 76.24 nm | 47% | 413 µg/mL | PDI [3, 9]: 0.019; PDI [3, 18]: 0.040; Serum TTR (Transthyretin (TTR); [21]): 619 µg/mL; Serum TTR % TSS (Transthyretin (TTR); [22]): 67%; Serum TTR (Transthyretin (TTR); [23]): 231 µg/mL; Serum TTR % TSS (Transthyretin (TTR); [24]): 25%
4 | CCCCCCCCCCOC(=O)CCCCCCCC(=O)OCC(COC(=O)CCC(OCCCCCCCC)OCCCCCCCC)COC(=O)OCCCN(CC)CC (stereo not shown) [Compound 59, 1-(3-((4,4-bis(octyloxy)butanoyl)oxy)-2-((((3-(diethylamino)propoxy)carbonyl)oxy)methyl)propyl) 9-decyl nonanedioate] | 6.4 | 98% | 98% and 96% | 99% and 97% | 99% | 75 nm | 0.04 | 91 nm | 72.60 nm and 67.12 nm | 87.31 nm and 83.42 nm | 79.11 nm | 0.041 | 96.76 nm | 909 µg/mL | 83% | 467 µg/mL | 84.05 nm and 73.04 nm | 100.4 nm and 87.86 nm | 40% and 57% and 66% | 367 µg/mL and 431 µg/mL and 604 µg/mL | PDI [3, 9]: 0.012 and 0.024; Serum TTR (Transthyretin (TTR); [21]): 300 µg/mL; Serum TTR % TSS (Transthyretin (TTR); [22]): 49%; Serum TTR % TSS (Transthyretin (TTR); [17]): 42%; Serum TTR (Transthyretin (TTR); [23]): 43 µg/mL; Serum TTR % TSS (Transthyretin (TTR); [24]): 7%
5 | CCCCCCCCCC(C)OC(=O)CCCCCCCC(=O)OCC(COC(=O)CCC(OCCCCCCCC)OCCCCCCCC)COC(=O)OCCCN(CC)CC (stereo not shown) [Compound 94, 1-(344,4-bis(octyloxy)butanoyl)oxy)-2-((((3-(diethylamino)propoxy)carbonyl)oxy)methyl)propyl) 9-(undecan-2-yl) nonanedioate] | 6.14 | 97% | – | 99% | 99% | 77 nm | 0.02 | 95 nm | – | – | 80.04 nm | 0.032 | 98.90 nm | 605 µg/mL | 55% | 352 µg/mL | 78.22 nm | 96.35 nm | 38% | 286 µg/mL | PDI [3, 18]: 0.018; Serum TTR % TSS (Transthyretin (TTR); [17]): 32%
6 | CCCCC/C=C\C/C=C\CCCCCCCC(=O)OCC(COC(=O)CC12CC3CC(CC(C3)C1)C2)COC(=O)OCCCN(CC)CC (stereo not shown) [Compound 107, 3-(2-((3 r,5 r, 7r)-adamantan-1-yl)acetoxy)-2-((((3-(diethylamino)propoxy)carbonyl)oxy)methyl)propyl (9Z,12Z)-octadeca-9,12-dienoate] | 6.43 | – | – | – | – | – | – | – | – | – | – | – | – | – | – | – | – | – | – | – | % E [2, 7]: 94%; Number mean (nm) [3, 12]: 65 nm; PDI [3, 12]: 0.07; Z-avg (nm) [3, 12]: 84 nm
